Reference: patent publication US8114866B2, “Derivatives of 1-piperazine- and 1-homopiperazine-carboxylates, preparation method thereof and use of same as inhibitors of the FAAH enzyme” (Sanofi-Aventis, priority 2003, dated 2012)
pIC50: −log10 of the molar value.

Experiments:
[1] = molecular target: T1, enzyme FAAH (Fatty Acid Amido Hydrolase) (Mus musculus, UniProt O08914); test: radioenzymatic test of FAAH inhibition (hydrolysis of anandamide [ethanolamine 1-3H], mouse brain membrane homogenates); type: biochemical; conditions: anandamide 10 μM, 15 minutes at 25° C., read-out: IC50 (concentration inhibiting 50% of the control enzymatic activity of FAAH)
T1 construct: The membrane homogenates are prepared extemporaneously by homogenizing the tissues with a Polytron machine; from tissue; host or cells: mouse brain (minus cerebellum) membrane homogenate
T1 sequence (O08914 1-579): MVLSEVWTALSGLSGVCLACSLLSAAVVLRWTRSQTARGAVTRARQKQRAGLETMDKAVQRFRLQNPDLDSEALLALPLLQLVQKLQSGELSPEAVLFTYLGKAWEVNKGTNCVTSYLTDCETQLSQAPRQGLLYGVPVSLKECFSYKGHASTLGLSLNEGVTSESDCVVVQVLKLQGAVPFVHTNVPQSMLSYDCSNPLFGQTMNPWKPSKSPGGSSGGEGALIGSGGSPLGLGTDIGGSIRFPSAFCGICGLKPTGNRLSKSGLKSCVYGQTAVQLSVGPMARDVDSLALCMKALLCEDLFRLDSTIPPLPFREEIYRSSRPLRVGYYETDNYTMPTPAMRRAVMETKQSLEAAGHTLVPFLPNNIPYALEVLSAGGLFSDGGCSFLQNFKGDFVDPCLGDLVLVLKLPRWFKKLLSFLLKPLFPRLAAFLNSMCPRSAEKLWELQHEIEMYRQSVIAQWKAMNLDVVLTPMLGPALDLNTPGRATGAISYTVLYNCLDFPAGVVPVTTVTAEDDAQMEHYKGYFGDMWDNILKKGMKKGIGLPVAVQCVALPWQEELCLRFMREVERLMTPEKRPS
Procedure: The compounds of the invention were subjected to pharmacological tests to determine their inhibitory effect on the enzyme FAAH (Fatty Acid Amido Hydrolase).
Thus, mouse brains (minus the cerebellum) are removed and stored at −80° C. The membrane homogenates are prepared extemporaneously by homogenizing the tissues with a Polytron machine in 10 mM Tris-HCl buffer (pH 8) containing 150 mM NaCl and 1 mM EDTA. The enzymatic reaction is then performed in 70 μl of buffer containing fatty-acid-free bovine serum albumin (1 mg/ml). The various test compounds at different concentrations, anandamide [ethanolamine 1-^3H] (specific activity of 15-20 Ci/mmol) diluted to 10 μM with cold anandamide, and the membrane preparation (400 μg of thawed tissue per test) are successively added. After 15 minutes at 25° C., the enzymatic reaction is quenched by adding 140 μL of chloroform/methanol (2:1). The mixture is stirred for 10 minutes and then centrifuged for 15 minutes at 3500×g. An aliquot (30 μL) of the aqueous phase containing the ethanolamine [1-^3H] is counted by liquid scintillation.

[2] = test system: male OF1 mice; test: test of analgesia: abdominal stretching induced by PBQ (phenylbenzoquinone) i.p.; type: in vivo; conditions: 1 mg/kg p.o. at 2 hours, PBQ 2 mg/kg i.p.
Procedure: It is thus seen that the compounds according to the invention have inhibitory activity on the enzyme FAAH. The in vivo activity of the compounds of the invention was evaluated in a test of analgesia.
Thus, the intraperitoneal (i.p.) administration of PBQ (phenylbenzoquinone, 2 mg/kg in a 0.9% sodium chloride solution containing 5% ethanol) to male OF1 mice weighing 25 to 30 g causes abdominal stretching, on average 30 twists or contractions in the period from 5 to 15 minutes after injection. The test compounds are administered orally as a 0.5% suspension in Tween 80, 60 minutes or 120 minutes before the administration of PBQ. Under these conditions, the most powerful compounds of the invention reduce the number of stretches induced by PBQ by 35 to 70%, in a dosage range of between 1 and 30 mg/kg.

Row | melting point [°C] | pIC50 [1] | Structure (SMILES) | Reduction of the number of stretches (%) [2]
1 | 189 to 190 | – | Cc1cc(F)cc2c1OCCC2 [Compound 15] | –
2 | – | 7.70 | CNC(=O)COC(=O)N1CCN(c2ccc(-c3ccc(Cl)cc3)cc2)CC1 [Compound 34] | –
3 | 197 to 198 | – | Cc1ccc(-c2ccc([N+](=O)[O-])cc2)cc1 [Compound 36] | –
4 | 129 to 130 | 6.72 | CNC(=O)COC(=O)N1CCN(c2ccc(-c3cccc(C(F)(F)F)c3)cc2)CC1 [Compound 37, 2-(methylamino)-2-oxoethyl 4-[3′-(trifluoromethyl)-4-biphenylyl]-1-piperazinecarboxylate] | −57 (a) %
5 | – | 7.36 | CCOc1ccc(-c2ccc(N3CCN(C(=O)OCC(=O)NC)CC3)cc2)cc1 [Compound 43] | –
6 | 187 to 189 | 8.15 | CNC(=O)COC(=O)N1CCN(c2ccc(-c3ccc(OC(F)(F)F)cc3)cc2)CC1 [Compound 44, 2-(methylamino)-2-oxoethyl 4-{4′-[(trifluoromethyl)oxy]-4-biphenyl}-1-piperazinecarboxylate] | −53 (a) %
7 | 127 to 129 | – | CNC(=O)COC(=O)N1CCN(c2ccc(CC(C)C)cn2)CC1 [Compound 63, 2-(methylamino)-2-oxoethyl 4-[5-(2-methylpropyl)-2-pyridyl]-1-piperazinecarboxylate] | –
8 | 87 to 89 | – | CNC(=O)COC(=O)N1CCN(c2ccc(CC(C)C)nc2)CC1 [Compound 66, 2-(methylamino)-2-oxoethyl 4-[6-(2-methylpropyl)-3-pyridyl]-1-piperazinecarboxylate] | –
9 | 203 to 206 | – | Cc1ccc(-c2ccc(Cl)cc2)cn1 [Compound 75] | –
10 | 158 to 160 | 6.54 | CNC(=O)COC(=O)N1CCN(c2ccc(-c3cccc(C(F)(F)F)c3)cn2)CC1 [Compound 76, 2-(methylamino)-2-oxoethyl 4-{5-[3-(trifluoromethyl)phenyl]-2-pyridyl}-1-piperazinecarboxylate] | −47 (a) %
11 | 206 to 209 | – | CNC(=O)COC(=O)N1CCN(c2ccc(-c3ccc(C(F)(F)F)cc3)cn2)CC1 [Compound 79, 2-(methylamino)-2-oxoethyl 4-{5-[4-(trifluoromethyl)phenyl]-2-pyridyl}-1-piperazinecarboxylate] | –
12 | 188 to 190 | 7.92 | CNC(=O)COC(=O)N1CCN(c2ccc(-c3ccc(OC(F)(F)F)cc3)cn2)CC1 [Compound 83, 2-(methylamino)-2-oxoethyl 4-(5-{4-[(trifluoromethyl)oxy]phenyl}-2-pyridyl)-1-piperazinecarboxylate] | –
13 | 146 to 150 | – | CNC(=O)COC(=O)N1CCN(c2ccc(-c3cccc(C(F)(F)F)c3)nc2)CC1 [Compound 85, 2-(methylamino)-2-oxoethyl 4-{6-[3-(trifluoromethyl)phenyl]-3-pyridyl}-1-piperazinecarboxylate] | –
14 | 155 to 157 | – | NC(=O)COC(=O)N1CCN(c2ccc(-c3cccc(C(F)(F)F)c3)nc2)CC1 [Compound 86, 2-amino-2-oxoethyl 4-{6-[3-(trifluoromethyl)phenyl]-3-pyridyl}-1-piperazinecarboxylate] | –
15 | 151 to 153 | – | CNC(=O)COC(=O)N1CCN(c2ccc(-c3cccc(C(F)(F)F)c3)nn2)CC1 [Compound 87, 2-(methylamino)-2-oxoethyl 4-{6-[3-(trifluoromethyl)phenyl]-3-pyridazinyl}-1-piperazinecarboxylate] | –
16 | 204 to 206 | – | Cc1ccc(-c2ccc(Cl)cc2)cn1 [Compound 98] | –
17 | 191 to 193 | – | CNC(=O)COC(=O)N1CCCN(c2ccc(-c3ccc(OC(F)(F)F)cc3)cn2)CC1 [Compound 103, 2-(methylamino)-2-oxoethyl 4-(5-{4-[(trifluoromethyl)oxy]phenyl}-2-pyridyl)-1,4-diazepane-1-carboxylate] | –
